US20240358829A1, “Lymphocyte Population and Methods for Producing Same” (AVM Biotechnology, LLC, priority 2021, published 2024)
Entries after “also recorded” stand apart in the source; their conditions may differ. Read-outs that look alike come from different tables or passages of the source.

Assays:
[1] = tested on: AVM-NKT cells (CD3highCD49b+); format: in vivo, mouse
Text: Mice were anesthetized with isoflurane gas.

[2] = tested on: peripheral blood mononuclear cells or single cell splenocytes; experiment: In vitro apoptosis of mononuclear cells or splenocytes incubated with AVM0703; format: cell-based, mouse; conditions: concentrations equivalent to in vivo peak blood concentrations of acute high dose, out to 72 hours
A20 B cell lymphoma = tested on: A20 B cell lymphoma
Procedure: FIG. 10B. […] Mice were inoculated with A20 lymphoma 2×10^6 cells in 100 μL of PBS mixed with 100 μL of chilled Matrigel into their flank. Three, 24 and 48 hours later mice were euthanized and tumors, blood, bone marrow and thymus were taken and made into single cell suspensions for flow cytometry detection of live A20 cells.

[3] = tested on: AVM-NKT cells (CD45 dim, CD56 very bright); experiment: Flow cytometry of human subjects treated with acute high doses of dexamethasone (Example 7); format: in vivo; conditions: prostate cancer patient, 6 mg/kg (fourth infusion)
[4] = AVM0703 R/R NHL clinical trial, blood counts; format: in vivo, human
[5] = Compassionate use patients treated with AVM0703; format: in vivo, human

SMILES: C[C@@H]1C[C@H]2[C@@H]3CCC4=CC(=O)C=C[C@]4(C)[C@@]3(F)[C@@H](O)C[C@]2(C)[C@@]1(O)C(=O)COP(=O)(O)O [AVM0703, dexamethasone sodium phosphate]
- location of induced AVM-NKT cells ([1]; naïve male Balb/c mice, 48 hours after doses about 29 mg/kg and higher (given as DP)): Induced in Bone Marrow and Fat Tissue
- location of induced AVM-NKT cells ([1]; naïve male C57Bl/6 mice): in blood
- Presence of AVM-NKT cells, 48 hrs spleen ([1]; naïve mice): positive
- apoptosis [2]: no apoptosis was observed
- time of maximal ablation of A20 lymphoma implanted in the flank (A20 B cell lymphoma; 18 mg/kg HED): ~3 h
- Presence of AVM-NKT cells, 48 hrs blood (A20 B cell lymphoma; A20 model): negative
- growth of the A20 B cell lymphoma (A20 B cell lymphoma; HED 18.1 mg/kg PO, repeat dosing, vs placebo): significantly delays growth
- location of AVM-NKT cells (A20 B cell lymphoma; male tumor bearing Balb/c mice): in tumors
- tumor necrosis (A20 B cell lymphoma; study A20-3, dose response curve, 18&26 mg/kg, doses on days 10, 17, 25, 32, 39): 18&26 mg/kg 50-80% necrotic
- novel CD45dim CD56 very bright cell population in blood ([3]; 1 hour after infusion, 6 mg/kg): observed; also recorded: evident
- novel CD45dim CD56 very bright cell population in blood ([3]; 3 hours after infusion): no longer observed
- WBCs, lymphocytes, platelets and RBCs ([4]; AVM0703-001 dose-escalation phase, doses between 6 mg/kg and 18 mg/kg): not depleted
- hemoglobin ([4]; R/R MCL patient, after 9 mg/kg infusion): clinically significantly increased
- Absolute lymphocyte counts (lymphocytosis) ([4]; patient 103-007 (mantle cell lymphoma), 12 mg/kg infusion, between day 4 and 7, 12 mg/kg): reduced to normal lymphocyte levels; also recorded: reduced lymphocytes
- monocytes, platelets, hematocrit and RBCs ([4]; patient 103-007, 12 mg/kg): spares normal blood cells; also recorded: not reduced
- neutrophils ([4]; patients in the AVM0703-001 trial in R/R NHL): some evidence of increased neutrophils
- time to immune infiltrate (skin turning red over the tumor area) ([5]; compassionate use patient with CNS squamous cell carcinoma, after starting an 18 mg/kg infusion): ≤ 30 min
- neutrophil production ([5]; compassionate use patient without neutrophils for 6 years): began making healthy active neutrophils
